Assay results taken from paper PMC5654968 (NPJ Systems Biology and Applications, 2017).
Read-outs that look alike come from different tables or passages of the source.

Experiments:
[1] = Common metabolites in rat plasma by GC-MS/MS after polyI:C and/or maoto; format: in vivo
Description: Distilled water and saline were administered as vehicle to rats in each control group. […] Plasma cytokine levels were measured by ELISA or multiplex immunoassay; common metabolites and lipid mediators were analyzed by GC-MS/MS and LC-MS/MS, respectively.
1 The concentrations of TNF-α and IL-6 in plasma samples were evaluated by
2 ELISA (R&D Systems, Minneapolis, MN, USA). Multiplex immunoassays
3 (Milliplex, Merck KGaA, Darmstadt, Germany) were performed to quantify the
4 concentrations of IL-1β, IL-10 and INF-γ. Assays were performed according to
5 the manufacturer’s protocol.
If any outliers in the data set were determined to
10 be due to artifacts, they were excluded from the analysis. Data are presented as
11 mean ± SEM. Statistical significance of the data was determined by Welch’s
12 t-test with Bonferroni correction. The significance level in each statistical
13 analysis was set at P<0.05.
14 Analysis of metabolites by GC-MS/MS
15 Plasma samples obtained at 1, 2, 6 and 20 h after treatment were used for
16 analysis. To extract low molecular weight metabolites for GC-MS/MS analysis, […]

[2] = Plasma PK of major maoto compounds by LC-MS/MS after oral administration of maoto; format: in vivo, rat
Description: 1 (7:00-19:00). Rats were maintained and used for the experiments in accordance
2 with the Guidelines for the Care and Use of Laboratory Animals of Tsumura &
3 CO. All experimental procedures were carried out upon approval from the
4 Laboratory Animal Committee of Tsumura & CO.
8 administered to 16-h fasted rats (n=3). […]
14 and 4 g/10mL/kg) were determined by LC-MS/MS. Based on a literature search,
16 amygdalin, prunasin, scopoletin, l-ephedrine, d-pseudoephedrine,
1 Plasma PK data were analyzed by noncompartmental modeling using
2 Phoenix WinNonlin (version 6.3, Certara L.P., St. Louis, MO, USA) to determine
3 various PK constants including Cmax, tmax, t1/2, and AUC0–last. The t1/2 was divided
4 by loge2/ke, where ke is the rate constant of terminal elimination (at least three
5 data points on the descending linear limb). […]

[3] = PM/P (polyI:C+maoto vs polyI:C), 1h
[4] = PM/P (polyI:C+maoto vs polyI:C), 2h
[5] = PM/P (polyI:C+maoto vs polyI:C), 6h
[6] = PM/P (polyI:C+maoto vs polyI:C), 20h
[7] = Sprague-Dawley, rat, plasma, po, 1 g/kg
[8] = Sprague-Dawley, rat, plasma, po, 1 g/kg, read-out: Cmax
[9] = Sprague-Dawley, rat, plasma, po, 1 g/kg, read-out: Tmax
[10] = Sprague-Dawley, rat, plasma, po, 2 g/kg
[11] = Sprague-Dawley, rat, plasma, po, 2 g/kg, read-out: Cmax
[12] = Sprague-Dawley, rat, plasma, po, 2 g/kg, read-out: Tmax
[13] = Sprague-Dawley, rat, plasma, po, 4 g/kg
[14] = Sprague-Dawley, rat, plasma, po, 4 g/kg, read-out: Cmax
[15] = Sprague-Dawley, rat, plasma, po, 4 g/kg, read-out: Tmax

SMILES | log2FC of plasma level ([1]; M/C (maoto vs control), 1h) | log2FC of plasma level ([1]; M/C (maoto vs control), 2h) | log2FC of plasma level ([1]; M/C (maoto vs control), 6h) | log2FC of plasma level ([1]; M/C (maoto vs control), 20h) | log2FC of plasma level ([1]; P/C (polyI:C vs control), 1h) | log2FC of plasma level ([1]; P/C (polyI:C vs control), 2h) | log2FC of plasma level ([1]; P/C (polyI:C vs control), 6h) | log2FC of plasma level ([1]; P/C (polyI:C vs control), 20h) | log2FC of plasma level [1, 3] | log2FC of plasma level [1, 4] | log2FC of plasma level [1, 5] | AUC(0-t) [2, 7] | Cmax [2, 8] | Tmax [2, 9] | AUC(0-t) [2, 10] | Cmax [2, 11] | Tmax [2, 12] | AUC(0-t) [2, 13] | Cmax [2, 14] | Tmax [2, 15] | also measured
NC(N)=O [Urea] | 0.05 | -0.01 | -0.09 | -0.07 | -0.01 | 0.02 | -0.05 | 0.03 | -0.02 | -0.03 | -0.13 | – | – | – | – | – | – | – | – | – | log2FC of plasma level [1, 6]: 0.0096
COc1c(CC=C(C)C)c(O)cc2oc(=O)c(-c3ccc(O)cc3O)cc12 [Glycycoumarin] | – | – | – | – | – | – | – | – | – | – | – | 0.0105 ng·h/mL | 0.0836 ng/mL | 0.25 h | 0.0227 ng·h/mL | 0.0906 ng/mL | 1 h | 0.058 ng·h/mL | 0.0753 ng/mL | 0.25 h | –
O=C(O)Cc1cc(O)ccc1O [Homogentisic acid] | 0.60 | -0.05 | 0.23 | 0.79 | -0.05 | 0.24 | 0.10 | 0.75 | 0.68 | -0.76 | -0.18 | – | – | – | – | – | – | – | – | – | log2FC of plasma level [1, 6]: 0.0612
O=C(CO)C(O)C(O)CO (stereo not drawn) [Ribulose] | 0.30 | 0.01 | 0.06 | 0.08 | 0.24 | 0.14 | 0.10 | -0.04 | -0.26 | -0.26 | 0.02 | – | – | – | – | – | – | – | – | – | log2FC of plasma level [1, 6]: 0.0374
O=C1C[C@@H](c2ccc(O[C@@H]3O[C@H](CO)[C@@H](O)[C@H](O)[C@H]3O)cc2)Oc2cc(O)ccc21 [Liquiritin] | – | – | – | – | – | – | – | – | – | – | – | 8.9 ng·h/mL | 3.04 ng/mL | 0.25 h | 22.4 ng·h/mL | 7.23 ng/mL | 1 h | 61.4 ng·h/mL | 71.7 ng/mL | 0.25 h | half-life [2, 7]: 1.95 h; half-life [2, 10]: 2.23 h; half-life [2, 13]: 4.34 h
NCC(=O)O [Glycine] | -0.06 | -0.10 | -0.14 | -0.06 | -0.03 | -0.01 | -0.02 | -0.30 | -0.12 | -0.42 | -0.02 | – | – | – | – | – | – | – | – | – | log2FC of plasma level [1, 6]: 0.0873
COc1cc2ccc(=O)oc2cc1O [Scopoletin] | – | – | – | – | – | – | – | – | – | – | – | 0.07 ng·h/mL | 0.216 ng/mL | 0.25 h | 0.428 ng·h/mL | 0.425 ng/mL | 0.25 h | 0.591 ng·h/mL | 0.237 ng/mL | 0.25 h | half-life [2, 10]: 2.39 h; half-life [2, 13]: 5.44 h
Oc1cc(O)c2c(c1)O[C@H](c1ccc(O)c(O)c1)[C@H](O)[C@H]2c1c(O)cc(O)c2c1O[C@H](c1ccc(O)c(O)c1)[C@H](O)C2 [Procyanidin B2] | – | – | – | – | – | – | – | – | – | – | – | – | – | – | 0.172 ng·h/mL | 0.687 ng/mL | 1 h | 2.06 ng·h/mL | 4.64 ng/mL | 0.25 h | AUClast ([2]; rat plasma, oral maoto 1 g/kg): BQL; Cmax ([2]; rat plasma, oral maoto 1 g/kg): BQL
O=C(/C=C/c1ccc(O[C@@H]2O[C@H](CO)[C@@H](O)[C@H](O)[C@H]2O)cc1)c1ccc(O)cc1O [Isoliquiritin] | – | – | – | – | – | – | – | – | – | – | – | 2.09 ng·h/mL | 1.6 ng/mL | 0.25 h | 6.03 ng·h/mL | 3.6 ng/mL | 1 h | 12.6 ng·h/mL | 8.71 ng/mL | 0.25 h | half-life [2, 7]: 2.3 h; half-life [2, 13]: 3.14 h
O=C[C@H](O)[C@H](O)[C@H](O)CO [Ribose] | 0.41 | 0.05 | -0.22 | 0.16 | 1.05 | 0.63 | -0.22 | -0.34 | -1.38 | -0.72 | -0.21 | – | – | – | – | – | – | – | – | – | log2FC of plasma level [1, 6]: 0.2160
Oc1cc(O)c2c(c1)O[C@H](c1ccc(O)c(O)c1)[C@H](O)[C@H]2c1c(O)cc(O)c2c1O[C@H](c1ccc(O)c(O)c1)[C@H](O)[C@H]2c1c(O)cc(O)c2c1O[C@H](c1ccc(O)c(O)c1)[C@H](O)C2 [Procyanidin C1] | – | – | – | – | – | – | – | – | – | – | – | – | – | – | – | – | – | 1.69 ng·h/mL | 3.9 ng/mL | 0.25 h | detection in rat plasma by targeted LC-MS/MS ([2]; oral maoto 2 g/kg): not detected; AUClast ([2]; rat plasma, oral maoto 1 g/kg): BQL; Cmax ([2]; rat plasma, oral maoto 1 g/kg): BQL; AUClast ([2]; rat plasma, oral maoto 2 g/kg): BQL; Cmax ([2]; rat plasma, oral maoto 2 g/kg): BQL
N#C[C@H](O[C@@H]1O[C@H](CO[C@@H]2O[C@H](CO)[C@@H](O)[C@H](O)[C@H]2O)[C@@H](O)[C@H](O)[C@H]1O)c1ccccc1 [Amygdalin] | – | – | – | – | – | – | – | – | – | – | – | 346 ng·h/mL | 101 ng/mL | 0.25 h | 1520 ng·h/mL | 653 ng/mL | 1 h | 7610 ng·h/mL | 5250 ng/mL | 0.25 h | half-life [2, 7]: 1.31 h; half-life [2, 10]: 0.937 h; half-life [2, 13]: 2.47 h
Oc1cc(O)c2c(c1)O[C@H](c1ccc(O)c(O)c1)[C@H](O)C2 [Epicatechin] | – | – | – | – | – | – | – | – | – | – | – | 4.24 ng·h/mL | 1.82 ng/mL | 0.5 h | 2.78 ng·h/mL | 1.95 ng/mL | 0.25 h | 6.92 ng·h/mL | 8.34 ng/mL | 0.25 h | half-life [2, 7]: 5.05 h; half-life [2, 10]: 2.03 h; half-life [2, 13]: 3.49 h
CC1(C)[C@@H](O)CC[C@]2(C)[C@H]3C(=O)C=C4[C@@H]5C[C@@](C)(C(=O)O)CC[C@]5(C)CC[C@@]4(C)[C@]3(C)CC[C@@H]12 [Glycyrrhetinic acid] | – | – | – | – | – | – | – | – | – | – | – | 2240 ng·h/mL | 234 ng/mL | 8 h | 4510 ng·h/mL | 373 ng/mL | – | 3950 ng·h/mL | 301 ng/mL | 8 h | Tmax ([2]; rat plasma, oral maoto 2 g/kg): 10 h
O=c1ccc2ccc(O)cc2o1 [7-hydroxycoumarin] | – | – | – | – | – | – | – | – | – | – | – | – | – | – | – | – | – | – | – | – | detection in rat plasma by targeted LC-MS/MS ([2]; oral maoto 2 g/kg): not detected; AUClast ([2]; rat plasma, oral maoto 1 g/kg): BQL; Cmax ([2]; rat plasma, oral maoto 1 g/kg): BQL; AUClast ([2]; rat plasma, oral maoto 2 g/kg): BQL; Cmax ([2]; rat plasma, oral maoto 2 g/kg): BQL; AUClast ([2]; rat plasma, oral maoto 4 g/kg): BQL; Cmax ([2]; rat plasma, oral maoto 4 g/kg): BQL
